Tests used:
[1] = test system: Mycobacterium tuberculosis Erdman (autoluminescent); assay: total FIC50 (Loewe) at 50% inhibition, three-drug combination (log2); higher = more antagonistic
Procedure: (§1)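 DiaMOND equipotent three-drug combination dose responses (10 doses, 1.5- or 2-fold spacing, centred on IC90) against autoluminescent M. tuberculosis Erdman in 8 in vitro models. Read-out is OD600, or luminescence for the intracellular and dormancy models, normalised to untreated wells. Hill-fit Einf, AUC25 and GRinf are potency metrics; FIC50 and FIC90 are total Loewe fractional inhibitory concentrations as log2 (negative = synergy).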

[2] = test system: Mycobacterium tuberculosis Erdman (autoluminescent); assay: Einf, fitted maximum growth inhibition of three-drug combination (fraction); higher = stronger maximal inhibition
Procedure: as §1

[3] = test system: Mycobacterium tuberculosis Erdman (autoluminescent); assay: GRinf, maximum normalised growth rate inhibition (three-drug combination) (unitless (-1 to 1)); higher = less effect (negative = killing)
Procedure: as §1

[4] = test system: Mycobacterium tuberculosis Erdman (autoluminescent); assay: AUC25, normalised area under dose response up to IC25 (three-drug combination) (fraction (0-1)); higher = more potent at low dose
Procedure: as §1

[5] = test system: Mycobacterium tuberculosis Erdman (autoluminescent); assay: total FIC90 (Loewe) at 90% inhibition, three-drug combination (log2); higher = more antagonistic
Procedure: as §1

COc1nc2ccc(Br)cc2cc1[C@@H](c1ccccc1)[C@@](O)(CCN(C)C)c1cccc2ccccc12 [bedaquiline] + COc1c(N2C[C@@H]3CCCN[C@@H]3C2)c(F)cc2c(=O)c(C(=O)O)cn(C3CC3)c12 [moxifloxacin] + NC(=O)c1cnccn1 [pyrazinamide]
Conditions	AUC25, [4]	Einf, [2]	GRinf, [3]	total FIC50, [1]	total FIC90, [5]
in vitro model: acidic pH 5.7, time point: constant (~7 days, model-specific)	0.0871	0.847	-0.43	0.0701	–
in vitro model: acidic pH 5.7, time point: terminal (~4-5 doublings, model-specific)	0.0844	0.984	-0.325	0.276	-0.165
in vitro model: intracellular J774, time point: constant = terminal	–	0.982	-0.385	–	0.89

Conditions	AUC25, [4]	Einf, [2]	GRinf, [3]	total FIC50, [1]	total FIC90, [5]
in vitro model: butyrate, time point: constant (~7 days, model-specific)	0.108	0.952	-0.798	0.562	1.12
in vitro model: butyrate, time point: terminal (~4-5 doublings, model-specific)	0.0863	0.987	-0.741	0.738	1.18
in vitro model: cholesterol 0.05 mM, time point: constant (~7 days, model-specific)	0.113	0.762	-0.387	–	–
in vitro model: cholesterol 0.05 mM, time point: terminal (~4-5 doublings, model-specific)	0.115	0.95	-0.419	0.205	2.28
in vitro model: cholesterol-high 0.2 mM, time point: constant (~7 days, model-specific)	0.0866	0.981	-0.58	0.399	–
in vitro model: cholesterol-high 0.2 mM, time point: terminal (~4-5 doublings, model-specific)	0.0915	1	-0.586	0.406	0.558
in vitro model: dormancy (butyrate + nitrate, low O2), time point: constant (~7 days, model-specific)	0.0687	0.928	0.247	-0.56	-0.988
in vitro model: dormancy (butyrate + nitrate, low O2), time point: terminal (~4-5 doublings, model-specific)	0.0596	0.987	-0.0885	0.109	-0.187
in vitro model: standard 7H9 glycerol, time point: constant = terminal	0.0806	0.969	-0.108	–	–
in vitro model: valerate, time point: constant (~7 days, model-specific)	0.102	0.916	-0.131	0.831	–
in vitro model: valerate, time point: terminal (~4-5 doublings, model-specific)	0.06	0.949	-0.0556	0.778	1.03

CC(C)/N=c1\cc2n(-c3ccc(Cl)cc3)c3ccccc3nc-2cc1Nc1ccc(Cl)cc1 [clofazimine] + CC(=O)NC[C@H]1CN(c2ccc(N3CCOCC3)c(F)c2)C(=O)O1 [linezolid] + NC(=O)c1cnccn1 [pyrazinamide]
Conditions	AUC25, [4]	Einf, [2]	GRinf, [3]	total FIC50, [1]	total FIC90, [5]
in vitro model: acidic pH 5.7, time point: constant (~7 days, model-specific)	0.115	0.851	-0.367	-0.389	–
in vitro model: acidic pH 5.7, time point: terminal (~4-5 doublings, model-specific)	0.099	0.964	-0.333	0.309	-1.87
in vitro model: intracellular J774, time point: constant = terminal	–	0.935	-0.0585	–	0.0502

Conditions	AUC25, [4]	Einf, [2]	GRinf, [3]	total FIC50, [1]	total FIC90, [5]
in vitro model: butyrate, time point: constant (~7 days, model-specific)	0.121	0.931	-0.0985	-0.132	1.31
in vitro model: butyrate, time point: terminal (~4-5 doublings, model-specific)	0.08	0.95	-0.0789	-0.0376	0.0936
in vitro model: cholesterol 0.05 mM, time point: constant (~7 days, model-specific)	0.131	0.722	-0.114	–	–
in vitro model: cholesterol 0.05 mM, time point: terminal (~4-5 doublings, model-specific)	0.142	0.927	-0.198	0.348	–
in vitro model: cholesterol-high 0.2 mM, time point: constant (~7 days, model-specific)	0.137	0.934	-0.71	0.27	–
in vitro model: cholesterol-high 0.2 mM, time point: terminal (~4-5 doublings, model-specific)	0.128	1	-0.983	-0.375	0.282
in vitro model: dormancy (butyrate + nitrate, low O2), time point: constant (~7 days, model-specific)	0.104	0.958	-0.0605	0.947	1.54
in vitro model: dormancy (butyrate + nitrate, low O2), time point: terminal (~4-5 doublings, model-specific)	0.0414	0.986	-0.449	0.584	0.337
in vitro model: standard 7H9 glycerol, time point: constant = terminal	0.123	0.939	-0.131	0.477	–
in vitro model: valerate, time point: constant (~7 days, model-specific)	0.119	0.8	0.241	0.731	–
in vitro model: valerate, time point: terminal (~4-5 doublings, model-specific)	0.0593	0.874	0.183	0.277	-1.05

O=[N+]([O-])c1cn2c(n1)OC[C@@H](OCc1ccc(OC(F)(F)F)cc1)C2 [pretomanid] + NC(=O)c1cnccn1 [pyrazinamide] + CO[C@H]1/C=C/O[C@@]2(C)Oc3c(C)c(O)c4c(O)c(c(/C=N/N5CCN(C)CC5)c(O)c4c3C2=O)NC(=O)/C(C)=C\C=C\[C@H](C)[C@H](O)[C@@H](C)[C@@H](O)[C@@H](C)[C@H](OC(C)=O)[C@@H]1C [rifampicin]
Conditions	AUC25, [4]	Einf, [2]	GRinf, [3]	total FIC50, [1]	total FIC90, [5]
in vitro model: acidic pH 5.7, time point: constant (~7 days, model-specific)	0.0685	0.907	-0.202	0.112	–
in vitro model: acidic pH 5.7, time point: terminal (~4-5 doublings, model-specific)	0.0533	0.988	-0.228	0.156	-0.637
in vitro model: intracellular J774, time point: constant = terminal	–	0.981	-0.237	–	-0.273

Conditions	AUC25, [4]	Einf, [2]	GRinf, [3]	total FIC50, [1]	total FIC90, [5]
in vitro model: butyrate, time point: constant (~7 days, model-specific)	0.1	0.875	0.153	-0.0322	–
in vitro model: butyrate, time point: terminal (~4-5 doublings, model-specific)	0.098	0.943	0.0978	-0.158	0.429
in vitro model: cholesterol 0.05 mM, time point: constant (~7 days, model-specific)	0.109	0.694	-0.0437	–	–
in vitro model: cholesterol 0.05 mM, time point: terminal (~4-5 doublings, model-specific)	0.0891	0.895	-0.0945	1.25	–
in vitro model: cholesterol-high 0.2 mM, time point: constant (~7 days, model-specific)	0.071	0.867	-0.142	0.75	–
in vitro model: cholesterol-high 0.2 mM, time point: terminal (~4-5 doublings, model-specific)	0.0574	0.997	-0.5	1.36	0.673
in vitro model: dormancy (butyrate + nitrate, low O2), time point: constant (~7 days, model-specific)	0.0775	0.863	0.209	-0.0806	-0.525
in vitro model: dormancy (butyrate + nitrate, low O2), time point: terminal (~4-5 doublings, model-specific)	0.0697	0.983	-0.11	-0.485	-0.0518
in vitro model: standard 7H9 glycerol, time point: constant = terminal	0.0634	0.897	0.147	-0.426	–
in vitro model: valerate, time point: constant (~7 days, model-specific)	0.0616	0.854	0.084	0.491	–
in vitro model: valerate, time point: terminal (~4-5 doublings, model-specific)	0.0376	0.933	0.0442	0.477	-0.0725

— the supplement of paper PMC8617591
